According to patent publication US20220324909A1, “THERAPEUTIC PEPTIDES” (COHBAR, INC., priority 2019, published 2022):
Non-standard residues stand in square brackets, D forms with d. Primed or numbered codes have the meaning given here. No end group written: not given here. PEG12(3) = not defined here

Experiments:
3T3-L1 mouse adipocytes [1] = assay: Free fatty acid levels in cultured 3T3-L1 mouse adipocytes and insulin dependence (Example 17); assay type: cell-based; conditions: insulin 10 nM, positive control
Method: The effect of the peptides on fatty acid metabolism can be assessed using an assay to monitor free fatty acid levels produced by cultured cells such as mouse adipocytes. […] Following 3 h incubation, conditioned medium from each well was transferred to a fresh 96-well plate. […] Absorbance values were expressed as percent control activity relative to 0.1 nM isoproterenol treated cells (no insulin) for 10 μM peptide alone or 0.25 nM insulin treated cells (with insulin) for 10 μM peptide in presence of 0.25 nM insulin. […] Data are presented as averages values from 2-3 independent experiments with each data point performed in triplicate.

3T3-L1 mouse adipocytes [2] = assay: Free fatty acid levels in 3T3-L1 mouse adipocytes (Example 12, 10 μM); assay type: cell-based; conditions: insulin 100 nM, positive control
Method: The effect of the peptides on fatty acid metabolism can be assessed using an assay of free fatty acid levels in cultured cells such as mouse adipocytes. Peptides were initially prepared as 10 mM stock in DMSO, diluted to 1 mM in H2O, and used at a final concentration of 10 μM (0.1% DMSO). […] Insulin at 100 nM was added to control wells.

3T3-L1 adipocytes = assay: Free fatty acid levels in cultured 3T3-L1 mouse adipocytes (Example 4, 25 μM); conditions: for Free Fatty Acid Levels, Percent of Control Value: peptide 25 μM, 20-22 h then 3 h with isoproterenol 1 nM, relative to isoproterenol control
Method: Mouse 3T3-L1 adipocytes were seeded at 3,000 cells per well in 96-well plates in Pre-adipocyte Medium (Zen-Bio, Durham, N.C.) and grown to confluence at 37° C. in a humidified atmosphere of 5% CO2/95% air. Two days after confluence, cells were placed in Adipocyte Differentiation Medium (Zen-Bio, Durham, N.C.) and cultured for three additional days at 37° C. in a humidified atmosphere of 5% CO2/95% air. The culture media was then replaced with Adipocyte Maintenance Medium (Zen-Bio) and the cells maintained for an additional 9-12 days at 37° C. in a humidified atmosphere of 5% CO2/95% air with partial medium replacement every other day. Following 12-15 days' differentiation, test peptides were added to a final concentration of 25 μM and incubated for 20-22 hours in Adipocyte Maintenance Medium. After 20-22 hours, isoproterenol (1 nM) was added to all wells except untreated controls and test peptides were replenished. Cells were incubated for a further 3 hours in Assay Buffer (Zen-Bio). Free fatty acid concentrations in the media were determined using a Free Fatty Acid Assay Kit (Zen-Bio) according to the manufacturer's instructions using a plate reader (540 nm). Absorbance values were corrected for untreated background and expressed relative to isoproterenol treated cells. Treatment with isoproterenol (1 nM) alone was used as the free fatty acid level stimulatory control.

H4-IIE cells = assay: Glucose production in cultured H4-IIE cells and insulin dependence; assay type: cell-based, rat; conditions: insulin 800 μM, modest inhibitor control
Method: The effect of the peptides on glucose homeostasis can be assessed using an assay to monitor glucose production by cultured cells such as rat hepatocytes. […] Following 24 h incubation, conditioned medium from each well was transferred to a fresh 96-well plate. Glucose concentrations in the medium were determined using a Glucose Assay kit (Abcam; Cambridge, Mass.) according to the manufacturer's instructions; absorbance measured using a Cytation 3 plate reader at 570 nm (BioTek, Winooski, Vt.). […] Untreated cells were used as reference for maximal glucose production. […] Insulin at 800 μM was used as a modest inhibitor glucose production. […] Data are presented as averages values from 2-4 independent experiments with each data point performed in triplicate.

MDA-MB-231 cells [3] = assay: Cell viability, MTS assay in MDA-MB-231 cells; assay type: cell-based, human
Method: Test compounds and reference compound staurosporine (Selleckchem) were all dissolved with DMSO at 10 mM stock. […] Activity was calculated relative to DMSO control. […] Cell viability was 3% of the DMSO control value for Staurosporine (10 μM).

MDA-MB-231 cells [4] = assay: Caspase 3/7 activity in MDA-MB-231 cells (Caspase-Glo 3/7); assay type: cell-based, human
Method: The effect of the peptides on cell death/survival can be assessed using a caspase-3 assay. Peptides were dissolved with DMSO at 10 mM stock. […] Staurosporine (Selleckchem) was dissolved with DMSO at 1 mM stock. Caspase-Glo 3/7 Assay Reagent was purchased from Promega (Madison, Wis.). MDA-MB-231 human breast cancer cell line was purchased from American Type Culture Collection (Manassas, Va.). MDA-MB-231 cells were grown in DMEM Medium supplemented with 10% FBS. 100 μg/ml penicillin and 100 μg/ml streptomycin were added to the culture medium. […] 25 μl of Caspase-Glo 3/7 Assay Reagent was added to each well and incubated at 37° C., 5% CO2 for 1 hour. Luminescence for each sample well on the plate was measured by Envision 2104 Multilabel Reader (PerkinElmer, Santa Clara, Calif.). Activity was calculated relative to DMSO control.

MCF-7 cells = assay: Cell viability, MTS assay in MCF-7 cells
Method: Peptides and reference compound staurosporine (Selleckchem) were dissolved with DMSO at 10 mM stock. CellTiter 96@ AQueous One Solution Reagent (MTS assay reagent) was purchased from Promega (Madison, Wis.). MCF-7 human breast cancer cell line was purchased from American Type Culture Collection (Manassas, Va.). MCF-7 cells were grown in EMEM Medium supplemented with 10% FBS and 0.01 mg/ml human recombinant insulin. 100 μg/ml penicillin and 100 μg/ml streptomycin were added to the culture medium. Cells were incubated with test peptides at 10 μM at 37° C. in a humidified atmosphere of 5% CO2 and 95% air for 72 hours. 5 μl of CellTiter 96@ AQueous One Solution Reagent (MTS assay reagent) was added to each well and incubated at 37° C., 5% CO2 for 5 hours. Absorbance at 492 nm was recorded by Envision 2104 Multilabel Reader. Treatment with DMSO alone was used as the cell viability activity control. The relative standard deviation of the DMSO control was 3%.

C2C12 cells [5] = assay: Caspase 3/7 activity in C2C12 cells; assay type: cell-based, mouse; conditions: staurosporine 100 nM, positive control
Method: The effect of the peptides on cell death/survival can be assessed using a caspase-3/7 assay in cultured cells such as mouse myoblast cells. Peptides were initially prepared as 10 mM stock in DMSO, diluted to 1 mM in H2O, and used at a final concentration of 10 μM (0.1% DMSO). […] Staurosporine (Abcam, Cambridge, Mass.) was dissolved at 10 mM in DMSO as a stock solution. Caspase-Glo 3/7 Assay Reagent was purchased from Promega (Madison, Wis.). C2C12 cell line was purchased from American Type Culture Collection (Manassas, Va.). C2C12 cells were grown in DMEM supplemented with 20% FBS with 100 IU/ml penicillin and 100 μg/ml streptomycin. […] C2C12 cells were seeded at 4,000 cells per well on 96-well plates. […] Caspase 3/7 activity was determined using a Caspase-Glo 3/7 Assay kit according to the manufacturer's instructions. Luminescence for each sample well on the plate was measured using a Cytation 3 plate reader (BioTek, Winooski, Vt.). Activity was calculated relative to 0.1% DMSO control.

Male DIO mice = assay: Metabolic parameters in diet induced obese (DIO) mice, Example 20; assay type: in vivo, mouse; conditions: N = 8
Method: Male C57BL/6 mice were maintained on a high fat diet for 18 weeks to develop diet induced obesity. Animals were randomized to treatment groups based on blood glucose levels and body weight. The peptides of the invention were administered to groups of male DIO mice once or twice daily by intraperitoneal injection at a dose of 5 mg/kg/dose for 8 to 10 days (N=8 animals per treatment group). Additional groups of male DIO mice (n=8) received vehicle (water) alone administered once or twice daily by intraperitoneal injection. Body weight, blood glucose levels and food intake were monitored. Body mass distribution (fat vs lean) was determined by quantitative whole body NMR prior to dosing and at the end of dosing.

C2C12 cells [6] = assay: ATP levels in cultured C2C12 cells (CellTiter-Glo); assay type: cell-based, mouse; conditions: lovastatin 10 μM, positive control
Method: The effect of the peptides on cellular metabolism can be assessed using an assay of ATP levels in cultured cells such as mouse myoblast cells. Peptides were initially prepared as 10 mM stock in DMSO, diluted to 1 mM in H2O, and used at a final concentration of 10 μM (0.1% DMSO). […] Lovastatin was prepared as 10 mM stock in 70% Ethanol and used at final concentration of 10 μM containing 0.1% DMSO. CellTiter-Glo® Assay kit was purchased from Promega (Madison, Wis.). […] C2C12 cells were grown in DMEM medium supplemented with 20% FBS with 100 IU/ml penicillin and 100 μg/ml streptomycin. […] C2C12 cells were seeded at 800 cells per well on 96-well plates. […] ATP levels were determined using a CellTiter-Glo Assay kit according to the manufacturer's instructions. Luminescence for each sample well on the plate was measured using a Cytation 3 plate reader (BioTek, Winooski, Vt.). Activity was calculated relative to 0.1% DMSO treated control. The relative standard deviation of the result for the 0.1% DMSO treated control was <5%. […] ATP levels for treatment with lovastatin (10 μM) were <50% of the 0.1% DMSO treated control value.

C2C12 cells [7] = assay: Cell proliferation in C2C12 cells (Cyquant DNA dye binding); assay type: cell-based, mouse; conditions: lovastatin 10 μM, growth arrest control
Method: The effect of the peptides on cell proliferation was assessed using a DNA dye binding assay in cultured cells such as mouse myoblast cells. Peptides were initially prepared as 10 mM stock in DMSO, diluted to 1 mM in H2O, and added at a final concentration of 10 μM (0.1% DMSO). Lovastatin was used as a growth arrest control at final concentration of 10 μM. […] C2C12 cells were grown in DMEM supplemented with 20% FBS with 100 IU/ml penicillin and 100 μg/ml streptomycin. […] C2C12 cells were seeded at 800 cells per well on 96-well plates. […] Cell proliferation was determined using Cyquant Direct Nucleic Acid Stain (Thermo Fisher Scientific, Waltham, Mass.) according to the manufacturer's instructions. Fluorescence for each sample well on the plate was measured using a Cytation 3 plate reader at Ex/Em=495/535 nm (BioTek, Winooski, Vt.). Activity was calculated relative to 0.1% DMSO untreated control. The relative standard deviation for the lovastatin control was <27%. The cell proliferation for the lovastatin control was <25% of the value for untreated control.

C2C12 cells [8] = assay: Cellular ROS levels induced by TBHP in C2C12 cells (DCFDA); assay type: cell-based, mouse; conditions: sulforaphane 10 μM, protective control
Method: The protective or synergistic effect of the peptides on cellular levels of reactive oxygen species (ROS) induced by oxidative stress can be assessed using an assay of ROS in cultured cells such as mouse myoblasts exposed to a suitable oxidative stress. Peptides were initially prepared as 10 mM stock in DMSO, diluted to 1 mM in H2O, and added at a final concentration of 10 μM (0.1% DMSO). […] TBHP was used at final concentration of 100 μM. Sulforaphane at final concentration of 10 μM was used as a protective control against TBHP induced ROS production. […] C2C12 cells were grown in DMEM supplemented with 20% FBS with 100 IU/ml penicillin and 100 μg/ml streptomycin. […] C2C12 cells were seeded at 7,500 cells per well on 96-well plates. […] After 18-20 hours of incubation the cells were loaded with DCFDA for 45 min. TBHP at 100 μM was then added to the appropriate wells for 1 hour. ROS activity was determined using a DCFDA Cellular ROS Detection Assay kit (Abcam, Cambridge, Mass.) according to the manufacturer's instructions. Fluorescence in each sample well on the plate was measured using a Cytation 3 plate reader at Ex/Em=485/535 nm (BioTek, Winooski, Vt.). Activity was calculated relative to TBHP control. The relative standard deviation of the sulforaphane control was <20%. The ROS level produced by the sulforaphane control in the presence of TBHP was 52% of the TBHP control.

[9] = staurosporine 10 μM, positive control
[10] = 5 mg/kg/dose QD intraperitoneal, 10 days
[11] = 5 mg/kg/dose BID intraperitoneal, 8 days

## insulin [reference compound]
3T3-L1 mouse adipocytes [1]
  Free fatty acid levels, % of isoproterenol control value: < 5%
3T3-L1 mouse adipocytes [2]
  Free fatty acid levels, % of isoproterenol control value: < 5%
3T3-L1 adipocytes; insulin 100 nM, positive control
  Free fatty acid levels, % of isoproterenol control value: < 5%
H4-IIE cells
  Glucose levels, % of untreated control value: 20-50%

## 2 (MRRIIGIVFQCLCGL) [compound 2]
MDA-MB-231 cells [3]; 72 hours, relative to DMSO control, concentration not given
  MTS Assay, Percent of Control Activity: 79%
MDA-MB-231 cells [4]; peptide 10 μM, 18 hours, relative to DMSO control
  Caspase 3/7 Activity, Percent of Control Activity: 62%
3T3-L1 adipocytes
  Free Fatty Acid Levels, Percent of Control Value: 97%
MCF-7 cells; peptide 10 μM, 72 hours, relative to DMSO control
  MTS Assay, Percent of Control Activity: 67%

## 5 (RRIIGIVFQCLC) [compound 5]
3T3-L1 adipocytes
  Free Fatty Acid Levels, Percent of Control Value: 115%

## 3 (RRIIGIVFQCLCGL) [compound 3]
3T3-L1 adipocytes
  Free Fatty Acid Levels, Percent of Control Value: 89%

## CN[C@@H]1C[C@H]2O[C@@](C)([C@@H]1OC)n1c3ccccc3c3c4c(c5c6ccccc6n2c5c31)C(=O)NC4 [staurosporine, reference compound]
C2C12 cells [5]
  Caspase 3/7 activity, % of background-corrected DMSO control value: 670%
MDA-MB-231 cells [3]; [9]
  Cell viability, % of DMSO control value: 3%
MDA-MB-231 cells [4]; staurosporine 0.05 nM, positive control
  Caspase activity, % of background-corrected DMSO control value: 130%
MCF-7 cells; [9]
  Cell viability, % of background corrected DMSO control value: < 5%

## RRMMGMVFQSLCG(dA) (RRMMGMVFQSLCG[dA]) [SEQ ID NO: 15]
Male DIO mice; [10]
  Difference from Vehicle Control: Decrease from Baseline in Blood Glucose: -3.38 mg/dL
  Difference from Vehicle Control: Decrease from Baseline in Body Weight: −4.97%
  Difference from Vehicle Control: Decrease from Baseline in Fat Mass: -2.19 g

## (PEG12)KRRIIGIVFQCLCG(dA) ([PEG12(3)]KRRIIGIVFQCLCG[dA]; cysteine pairing not given here) [SEQ ID NO: 42]
Male DIO mice; [10]
  Difference from Vehicle Control: Decrease from Baseline in Blood Glucose: -10.7 mg/dL
  Difference from Vehicle Control: Decrease from Baseline in Body Weight: −2.94%

## 4 (RRIIGIVFQCLCG) [compound 4]
3T3-L1 adipocytes
  Free Fatty Acid Levels, Percent of Control Value: 100%

## CC[C@H](C)C(=O)O[C@H]1C[C@@H](C)C=C2C=C[C@H](C)[C@H](CC[C@@H]3C[C@@H](O)CC(=O)O3)[C@H]21 [lovastatin, reference compound]
C2C12 cells [6]
  ATP levels, % of 0.1% DMSO treated control value: < 50%
C2C12 cells [7]
  Cell proliferation, % of value for untreated control: < 25%

## C[S+]([O-])CCCCN=C=S (stereo not shown) [sulforaphane, reference compound]
C2C12 cells [8]
  ROS level in the presence of TBHP, % of TBHP control: 52%

## (PEG12)KRRMMGMVFQCLCG(dA) (KRRMMGMVFQCLCGA; N-terminal PEG12; C-terminal D-alanine; (1)..(1) PEG12; (15)..(15) d-Ala) [SEQ ID NO: 20]
Male DIO mice; [10]
  Difference from Vehicle Control: Decrease from Baseline in Blood Glucose: -0.75 mg/dL
  Difference from Vehicle Control: Decrease from Baseline in Body Weight: −3.59%
  Difference from Vehicle Control: Decrease from Baseline in Fat Mass: -1.78 g

## RRMMGMVFQCLCG(dA) (RRMMGMVFQCLCG[dA]; cysteine pairing not given here) [SEQ ID NO: 8]
Male DIO mice; [11]
  Difference from Vehicle Control: Decrease from Baseline in Blood Glucose: -14.3 mg/dL
  Difference from Vehicle Control: Decrease from Baseline in Body Weight: −5.66%
  Difference from Vehicle Control: Decrease from Baseline in Fat Mass: -2.15 g

## RRMMGMVEQSLCG(dA) (RRMMGMVEQSLCG[dA]) [SEQ ID NO: 38]
Male DIO mice; [10]
  Difference from Vehicle Control: Decrease from Baseline in Blood Glucose: -24.1 mg/dL
  Difference from Vehicle Control: Decrease from Baseline in Body Weight: −3.12%
